From the NIST ThermoML archive (doi:10.1021/je100577v)

Tests used:
[1] = Liquid; for mass density: Vibrating tube method; for vapor or sublimation pressure: Ebulliometric method (Recirculating still)
[2] = xn = mol fraction of the nth substance listed; conditions: Liquid, Vibrating tube method, x2 = 0

CC12CCC(CC1)C(C)(C)O2 [1,3,3-trimethyl-2-oxabicyclo[2.2.2]octane]
mass density [kg/m3], [1]
Conditions | 20000 kPa | 25000 kPa | 30000 kPa | 35000 kPa | 40000 kPa
283.15 K | 945.9 | 949.1 | 952 | 954.9 | 957.6
298.15 K | 934.1 | 937.4 | 940.5 | 943.4 | 946.4
313.15 K | 922.3 | 925.8 | 929.1 | 932.4 | 935.5
328.15 K | 910.6 | 914.3 | 917.9 | 921.3 | 924.7

[1]
Conditions | vapor or sublimation pressure [kPa]
326.65 K | 1.33
341.55 K | 2.67
357.25 K | 5.33
363.45 K | 6.67
381.45 K | 13.33
392.75 K | 20
401.75 K | 26.66
408.65 K | 33.33
414.65 K | 40
419.95 K | 46.66
424.65 K | 53.33
428.85 K | 60
432.75 K | 66.66
436.35 K | 73.33
439.75 K | 79.99
442.85 K | 86.66
445.85 K | 93.33
448.65 K | 99.61
449.15 K | 101.33

CCCO [propan-1-ol]
mass density [kg/m3], [1]
Conditions | 20000 kPa | 25000 kPa | 30000 kPa | 35000 kPa | 40000 kPa
283.15 K | 825.1 | 828.4 | 831.5 | 834.5 | 837.4
298.15 K | 814.2 | 817.6 | 820.9 | 824 | 827.1
313.15 K | 803.1 | 806.9 | 810.4 | 813.7 | 817
328.15 K | 792 | 795.8 | 799.6 | 803.1 | 806.6

[1]
Conditions | vapor or sublimation pressure [kPa]
319.65 K | 10
327.25 K | 15
332.95 K | 20
337.45 K | 25
341.25 K | 30
343.55 K | 33.33
344.65 K | 35
347.65 K | 40
350.35 K | 45
352.75 K | 50
355.05 K | 55
357.05 K | 60
359.05 K | 65
359.65 K | 66.66
360.85 K | 70
362.55 K | 75
364.15 K | 80
365.65 K | 85
367.15 K | 90
370.05 K | 101.33

CCCO [propan-1-ol] + CC12CCC(CC1)C(C)(C)O2
mass density [kg/m3], [2]
Conditions | 20000 kPa | 25000 kPa | 30000 kPa | 35000 kPa | 40000 kPa
283.15 K | 825.1 | 828.4 | 831.5 | 834.5 | 837.4
298.15 K | 814.2 | 817.6 | 820.9 | 824 | 827.1
313.15 K | 803.1 | 806.9 | 810.4 | 813.7 | 817
328.15 K | 792 | 795.8 | 799.6 | 803.1 | 806.6
